Structures are written as SMILES. “And” between values parts separate entries of the source, which are not always exact repeats. Identical values can stand only once. Toxic doses and inconclusive results are not listed.

The assay relates to CD2F1 mice, L1210 leukemia ip, survival T/C. Nature of the assay: NCI In Vivo Anticancer Drug Screen. Data for tumor model L1210 Leukemia (intraperitoneal) in CD2F1 (CDF1) mice. Particulars: higher = longer survival. Summed up: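 Tumor-bearing mice (transplanted tumor) were split into treated and vehicle control groups, and the measured endpoint of each treated group was divided by that of its vehicle controls.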

[1] abbreviates: endpoint: mean survival time, dose: 100.0 mg/kg/injection, schedule: Q01DX001 (ip), vehicle: saline with Tween-80.
The mark [2] stands for this setting: endpoint: mean survival time, dose: 75.0 mg/kg/injection, schedule: Q01DX001 (ip), vehicle: saline.
Where [3] appears, read: endpoint: mean survival time, dose: 200.0 mg/kg/injection, schedule: Q01DX001 (ip), vehicle: saline with Tween-80.
[4] abbreviates: endpoint: mean survival time, dose: 100.0 mg/kg/injection, schedule: Q04DX003 (ip), vehicle: saline with Tween-80.
The mark [5] stands for this setting: endpoint: mean survival time, dose: 200.0 mg/kg/injection, schedule: Q04DX003 (ip), vehicle: saline with Tween-80.
The mark [6] stands for this setting: endpoint: mean survival time, dose: 400.0 mg/kg/injection, schedule: Q04DX003 (ip), vehicle: saline with Tween-80.
Setting [7] is: endpoint: mean survival time, dose: 50.0 mg/kg/injection, schedule: Q01DX009 (ip), vehicle: saline with Tween-80.
[8] abbreviates: endpoint: mean survival time, dose: 100.0 mg/kg/injection, schedule: Q01DX009 (ip), vehicle: saline with Tween-80.
[9] abbreviates: endpoint: mean survival time, dose: 100.0 mg/kg/injection, schedule: Q04DX002 (ip), vehicle: saline with Tween-80.
Setting [10] is: endpoint: mean survival time, dose: 200.0 mg/kg/injection, schedule: Q04DX002 (ip), vehicle: saline with Tween-80.
The mark [11] stands for this setting: endpoint: mean survival time, dose: 400.0 mg/kg/injection, schedule: Q04DX002 (ip), vehicle: saline with Tween-80.
[12] abbreviates: endpoint: mean survival time, dose: 200.0 mg/kg/injection, schedule: Q01DX009 (ip), vehicle: saline with Tween-80.
Setting [13] is: endpoint: mean survival time, dose: 400.0 mg/kg/injection, schedule: Q01DX009 (ip), vehicle: saline with Tween-80.
The mark [14] stands for this setting: endpoint: mean survival time, dose: 12.5 mg/kg/injection, schedule: Q01DX009 (ip), vehicle: saline with Tween-80.

In the case of `NC(N)=NC(N)=Nc1ccc(-c2ccccc2)cc1`, the T/C by setting is: (endpoint: mean survival time, dose: 25.0 mg/kg/injection, schedule: Q01DX001 (ip), vehicle: saline with Tween-80) 100 % of control; (endpoint: mean survival time, dose: 50.0 mg/kg/injection, schedule: Q01DX001 (ip), vehicle: saline with Tween-80) 103 % of control; under setting [1], 93 % of control.

Turning to `CC[C@@]1(O)C(=O)OCc2c1cc1n(c2=O)Cc2cc3cc(O)ccc3nc2-1`, the T/C was 155 % of control (endpoint: mean survival time, dose: 2.0 mg/kg/injection, schedule: Q04DX003 (ip), vehicle: other); 174 % of control (endpoint: mean survival time, dose: 4.0 mg/kg/injection, schedule: Q04DX003 (ip), vehicle: other); 107 % of control (endpoint: mean survival time, dose: 16.0 mg/kg/injection, schedule: Q04DX003 (ip), vehicle: other); 184 % of control (endpoint: median survival time, dose: 1.25 mg/kg/injection, schedule: Q04DX002 (ip), vehicle: saline); 166 % of control (endpoint: median survival time, dose: 1.5 mg/kg/injection, schedule: Q04DX002 (ip), vehicle: saline); 162 % of control and 253 % of control (endpoint: median survival time, dose: 2.5 mg/kg/injection, schedule: Q04DX002 (ip), vehicle: saline). Besides, the T/C was 150 % of control (endpoint: median survival time, dose: 3.0 mg/kg/injection, schedule: Q04DX002 (ip), vehicle: suspension in saline); 232 % of control and 301 % of control (endpoint: median survival time, dose: 5.0 mg/kg/injection, schedule: Q04DX002 (ip), vehicle: saline); 153 % of control (endpoint: median survival time, dose: 6.0 mg/kg/injection, schedule: Q04DX002 (ip), vehicle: suspension in saline); 192 % of control and 209 % of control (endpoint: median survival time, dose: 10.0 mg/kg/injection, schedule: Q04DX002 (ip), vehicle: saline); 228 % of control (endpoint: median survival time, dose: 12.0 mg/kg/injection, schedule: Q04DX002 (ip), vehicle: suspension in saline); 184 % of control and 348 % of control (endpoint: median survival time, dose: 20.0 mg/kg/injection, schedule: Q04DX002 (ip), vehicle: saline). Moreover, the T/C is 102 % of control (endpoint: median survival time, dose: 40.0 mg/kg/injection, schedule: Q04DX002 (ip), vehicle: saline) and 87 % of control (endpoint: median survival time, dose: 48.0 mg/kg/injection, schedule: Q04DX002 (ip), vehicle: suspension in saline).

On to `O=C(O)CNC(=O)C(CSC(c1ccccc1)(c1ccccc1)c1ccccc1)NC(c1ccccc1)(c1ccccc1)c1ccccc1` (stereo not drawn), for which the T/C under setting [2] is 97 % of control.

Regarding `Nc1nc(Br)nc2c1ncn2C1OC(CO)C(O)C1O` (stereo not drawn), the T/C under setting [2] was 109 % of control.

Consider `COCC(O)CN1CCN(c2cccc3c2CCCC3)CC1` (stereo not drawn), for which the T/C was 97 % of control under setting [1] and 100 % of control under setting [3].

For the compound `O=C1c2ccccc2S(=O)(=O)N1CC(O)COc1ccc(Cl)cc1` (stereo not drawn), the T/C is 101 % of control under setting [4], 101 % of control under setting [5] and 93 % of control under setting [6].

For `NC1=C(Br)C(=O)C(=O)c2ccccc21`, the T/C is, setting by setting: under setting [1], 101 % of control; under setting [3], 101 % of control; (endpoint: mean survival time, dose: 400.0 mg/kg/injection, schedule: Q01DX001 (ip), vehicle: saline with Tween-80) 97 % of control.

On to `N=C(OC1CCCCC1)C(Cl)(Cl)Cl`, for which the T/C under setting [7] is 92 % of control and the T/C under setting [8] was 88 % of control.

Turning to `O=C(O)C1C2CCC(CC2)C1C(=O)O` (stereo not drawn), the T/C runs as follows: under setting [9], 93 % of control; under setting [10], 97 % of control; under setting [11], 101 % of control.

With `Cc1cc(C)c(N2C(=O)CC(Sc3ccccc3N)C2=O)c(C)c1` (stereo not drawn), the T/C was 92 % of control under setting [8], 96 % of control under setting [12] and 94 % of control under setting [13].

As to `COc1cc(C(=O)C=O)cc(OC)c1OC`, the T/C runs as follows: under setting [7], 103 % of control; under setting [4], 109 % of control; under setting [5], 110 % of control.

For `CC/C(C)=C(/C(=O)O)c1ccccc1`, the T/C reads like this: under setting [8], 95 % of control; under setting [12], 98 % of control; under setting [13], 97 % of control.

In the case of `C/C(=N\N=C(/C)c1cccs1)c1cccs1`, the T/C was 90 % of control (endpoint: median survival time, dose: 25.0 mg/kg/injection, schedule: Q04DX002 (ip), vehicle: saline with Tween-80); 90 % of control (endpoint: median survival time, dose: 50.0 mg/kg/injection, schedule: Q04DX002 (ip), vehicle: saline with Tween-80); 100 % of control (endpoint: median survival time, dose: 100.0 mg/kg/injection, schedule: Q04DX002 (ip), vehicle: saline with Tween-80); 90 % of control (endpoint: median survival time, dose: 200.0 mg/kg/injection, schedule: Q04DX002 (ip), vehicle: saline with Tween-80).

As for `N#Cc1cnoc1N`, the T/C is 112 % of control under setting [8], 114 % of control under setting [12] and 109 % of control under setting [13].

On to `OCCCCCCl`, for which the T/C is 104 % of control (endpoint: mean survival time, dose: 100.0 mg/kg/injection, schedule: Q01DX001 (ip), vehicle: saline); 98 % of control (endpoint: mean survival time, dose: 200.0 mg/kg/injection, schedule: Q01DX001 (ip), vehicle: saline); 101 % of control (endpoint: mean survival time, dose: 400.0 mg/kg/injection, schedule: Q01DX001 (ip), vehicle: saline).

As to `O=C(CBr)Nc1cc([N+](=O)[O-])ccc1O`, the T/C runs as follows: (endpoint: mean survival time, dose: 6.25 mg/kg/injection, schedule: Q01DX009 (ip), vehicle: saline with Tween-80) 91 % of control; under setting [14], 98 % of control.

On to `CC(=Nc1ccccc1)C1=C(O)C(Cc2ccccc2)NC1=O` (stereo not drawn), for which the T/C was 98 % of control and 103 % of control under setting [14]; 100 % of control (endpoint: mean survival time, dose: 12.5 mg/kg/injection, schedule: Q04DX002 (ip), vehicle: saline with Tween-80); 102 % of control and 111 % of control (endpoint: mean survival time, dose: 25.0 mg/kg/injection, schedule: Q01DX009 (ip), vehicle: saline with Tween-80); 103 % of control (endpoint: mean survival time, dose: 25.0 mg/kg/injection, schedule: Q04DX002 (ip), vehicle: saline with Tween-80); 118 % of control and 108 % of control under setting [7]; 103 % of control (endpoint: mean survival time, dose: 50.0 mg/kg/injection, schedule: Q04DX002 (ip), vehicle: saline with Tween-80). Also, the T/C under setting [8] was 110 % of control.

With `CNc1ncn(-c2c(C)cccc2C)c(=O)n1`, the T/C runs as follows: (endpoint: median survival time, dose: 3.12 mg/kg/injection, schedule: Q01DX005 (ip), vehicle: Klucel (hydroxypropylcellulose) (HPC)) 101 % of control; (endpoint: median survival time, dose: 6.25 mg/kg/injection, schedule: Q01DX005 (ip), vehicle: Klucel (hydroxypropylcellulose) (HPC)) 97 % of control; (endpoint: median survival time, dose: 12.5 mg/kg/injection, schedule: Q01DX005 (ip), vehicle: Klucel (hydroxypropylcellulose) (HPC)) 102 % of control; (endpoint: median survival time, dose: 25.0 mg/kg/injection, schedule: Q01DX005 (ip), vehicle: Klucel (hydroxypropylcellulose) (HPC)) 100 % of control; (endpoint: median survival time, dose: 50.0 mg/kg/injection, schedule: Q01DX005 (ip), vehicle: Klucel (hydroxypropylcellulose) (HPC)) 108 % of control; (endpoint: median survival time, dose: 50.0 mg/kg/injection, schedule: Q01DX005 (ip), vehicle: saline with Tween-80) 119 % of control and 98 % of control and 102 % of control. Further, the T/C was 123 % of control and 98 % of control and 110 % of control (endpoint: median survival time, dose: 100.0 mg/kg/injection, schedule: Q01DX005 (ip), vehicle: saline with Tween-80); 122 % of control and 107 % of control (endpoint: median survival time, dose: 200.0 mg/kg/injection, schedule: Q01DX005 (ip), vehicle: saline with Tween-80).

As to `C[N+](C)(C)c1cccc(S)c1`, the T/C under setting [9] was 104 % of control, the T/C under setting [10] is 112 % of control and the T/C under setting [11] is 100 % of control.

As for `Cc1cccc[n+]1CCC(N)=O`, the T/C reads like this: (endpoint: mean survival time, dose: 6.25 mg/kg/injection, schedule: Q04DX003 (ip), vehicle: saline) 96 % of control; (endpoint: mean survival time, dose: 12.5 mg/kg/injection, schedule: Q04DX003 (ip), vehicle: saline) 88 % of control; (endpoint: mean survival time, dose: 25.0 mg/kg/injection, schedule: Q04DX003 (ip), vehicle: saline) 91 % of control.

Consider `CC(C)(CO)C(O)C(=O)NCCS(=O)c1ccc(F)cc1` (stereo not drawn), for which the T/C (endpoint: mean survival time, dose: 100.0 mg/kg/injection, schedule: Q04DX003 (ip), vehicle: other) was 100 % of control; the T/C (endpoint: mean survival time, dose: 200.0 mg/kg/injection, schedule: Q04DX003 (ip), vehicle: other) is 96 % of control; the T/C (endpoint: mean survival time, dose: 400.0 mg/kg/injection, schedule: Q04DX003 (ip), vehicle: other) was 100 % of control.

For `CCOC(c1ccccc1)(c1ccccc1)c1ccccc1`, the T/C by setting is: (endpoint: mean survival time, dose: 100.0 mg/kg/injection, schedule: Q01DX009 (ip), vehicle: other) 98 % of control; (endpoint: mean survival time, dose: 200.0 mg/kg/injection, schedule: Q01DX009 (ip), vehicle: other) 102 % of control; (endpoint: mean survival time, dose: 400.0 mg/kg/injection, schedule: Q01DX009 (ip), vehicle: other) 96 % of control.

With `COc1cc(C)c(Br)c(OC)c1`, the T/C runs as follows: under setting [4], 92 % of control; under setting [5], 99 % of control; under setting [6], 99 % of control.

For the origin of these results see PubChem BioAssay AID256 (DTP/NCI, 2004).
